Source: publication PMC9513234, “Synthesis and Biological Evaluation of Termini-Modified and Cyclic Variants of the Connexin43 Inhibitor Peptide5” (Frontiers in Chemistry, 2022)
“Also recorded” adds a separate entry of the source. Where a SMILES comes first, the peptide text is derived from it. Bridges are numbered along the chain shown (N, C = ends). [ ]: non-standard residue; d: D form. The star is where a group is joined. AllylGly = C=CC[C@H](N)C(=O)O; Ethoxycarbonyl = CCOC(=O)*; Butyryl = CCCC(=O)*; Bz = O=C(c1ccccc1)*; N3 = azide

How the values were obtained:
[1] = Human serum stability assay (RP-HPLC); details: for stability in human serum (result in words): 25% aq. human serum, 37°C, 48 h
Description: We then evaluated the N-methylated variants 7 and 8, D amino acid variants 9 and 10, and the two carbo cyclic peptides 39 and 42. Each peptide was incubated with 25% aq. human serum at 37°C, and 6 aliquots were extracted within 48 h. The stability of each peptide upon exposure to human serum was then analyzed via analytical RP HPLC, and the amount of peptide still present at each time point was recorded relative to t = 0 h.
Whole blood was collected from a healthy volunteer and stored in a covered test tube and was allowed to clot by leaving it undisturbed at r.t. for ca. 1 h. The clot was removed by centrifugation at 1,000-2,000 x g for 10 min and the resulting supernatant was designated as the serum. The serum was collected and stored in 0.5 mL aliquots, whereby the samples were stored at - 20 °C.
200 µM concentration of peptide was incubated in 25% aq. human serum (1.7 mL) and left to shake at 37 °C. Aliquots of human serum-peptide mixture (270 µL) were taken at given times (0 h, 1 h, 4 h, 8 h, 24 h, and 48 h) and threefold excess of acetonitrile (810 µL) was added to the aliquot and left for 1 h at 0 °C. The samples underwent centrifugation (14,500 rpm) for 30 min at r.t. and the supernatant was subsequently collected. Upon evaporation of the solvents, the resulting dry, pale-yellow residue was dissolved in water containing 0.1 % TFA.
The dissolved solution was analysed via analytical RP HPLC and the quantity of the peptide was expressed as a percentage relative to the peptide peak area obtained at time zero (i.e. 100% peptide amount at t = 0 h). A scatterplot graph representing percentage of peptide versus time was generated.

Cx43 hemichannel = molecular target: T1, Cx43 hemichannel (Homo sapiens, UniProt P17302); assay: HAIR ischemic injury-induced ATP release (hemichannel) assay, bioluminescence; format: cell-based; details: hCMVEC cells, 2 h in HAIR solution, 100 µM; for ATP release compared to HAIR control (result in words) / ATP release compared to peptide5 (result in words): one-way ANOVA, Dunnett; for ATP release over untreated HAIR controls: mean ± SEM
T1 construct: ischemic injury–induced ATP release from hCMVEC cells in vitro; host or cells: hCMVEC (human cerebral microvascular endothelial cells)
Description: To test the effect of the peptide modifications on peptide5 (1) activity against hemichannels, a model of ischemic insult on a cell culture model of the brain microvasculature was used to induce Cx43 hemichannel opening and ATP release (Supplementary Material, Method 4). The cells were incubated in hypoxic-acidic ion-shifted ringers (HAIR) solution to generate disrupted pH and ion balance leading to ATP leak from the cells, which can be sampled and quantified luminometrically using a commercially available firefly luciferase assay (Molecular Probes).
(§1) Human cerebral microvascular endothelial cells (hCMVEC) were purchased from Applied Biological Materials (ABM) Inc, Canada (cat # T0259) (O'Carroll et al., 2015). Cells were cultured in 1 μg/cm^2 collagen I (Gibco) coated T75 flasks from Corning (NY, USA). The growth media was M199 media (Gibco), supplemented with 10% FBS, 1 μg/mL hydrocortisone (Sigma), 3 μg/mL human FGF (Peprotech), 10 μg/mL human EGF (Peprotech), 10 μg/mL heparin (Sigma), 2 mM Glutamax (Gibco), and 80 μM butyryl cAMP (Sigma).
For experiments hCMVECs were plated in M199 media at a density of 2.5 x 10^4 cells per well in a collagen-coated (1 µg/cm^2) 12-well plate the day prior to the experiment. Hypoxic, acidic, ion-shifted Ringer (HAIR) injury solution that mimics ionic concentrations and acid-base shifts of the interstitial space in hypoxic-ischemic brains (Bondarenko & Chesler, 2001) was used to trigger hemichannel opening as described previously (Kim et al., 2017). HAIR solution (38 mM NaCl, 13 mM NaHCO3, 3 mM Na-gluconate, 65 mM K-gluconate, 38 mM NMDG-Cl, 1 mM NaH2PO4, and 1.5 mM MgCl2) was bubbled in 95% N2, 5% CO2 gas (20 L/min) for 5 minutes and pH adjusted to 6.6 before use. To induce ischemic, cells were incubated for 2 hours in 500 µL HAIR solution +/- carbenoxolone (100 µM), Peptide5 or modified analogues (100 µM). For the negative control, hCMVEC cells were incubated for 2 hours in 500 µL standard Ringer solution 124 mM NaCl, 3 mM KCl, 26 mM NaHCO3, […], 1 mM NaH2PO4, 1.3 mM CaCl2, 1.5 MgCl2, and 10 mM glucose) adjusted to pH 7.4 before use. All incubations were carried out at 37 °C in 95% O2 and 5% CO2. At the end of each experiment, samples were removed and immediately placed on ice. The concentration of ATP in the samples was determined using a luciferin/luciferase bioluminescence reaction (ATP Determination Kit, Molecular Probes) and detected using a luminescence plate reader (FLUOStar OPTIMA FL, BMG Labtech). Standard curves were generated for each experiment from an ATP standard (0 to 500 nM) and used to convert bioluminescence units to ATP concentration. […] Only readings in the plateau phase of the reaction were included in averaging for the well value. Each peptide was tested in at least an n of 2 separate experiments.

[2] = test system: gap junctions in hCMVEC cells; details: 100 µM; for LY dye spread (number of LY-positive cells) as percentage of untreated control: mean ± SEM
Description: We next investigated the ability of peptide5 variants to inhibit gap junctional communication using a scrape loading assay. In this assay, the cells in culture are loaded with a dye (Lucifer Yellow dilithium salt (LY), M.W. 457.25 Da) of molecular size (<1 kDa) that is able to transit through the gap junctions and the degree of dye spread is then measured by counting the number of cells that contain LY (Supplementary Material, Method 4) ^1. Consistent with our previous study, peptide5 (1) and Cbx reduced the degree of dye spread following incubation with LY (56.16 ± 2.1%; p < 0.0001 and 16.2 ± 1.1%; p < 0.0001, respectively) compared to the untreated controls (Figure 12).
as §1
For experiments hCMVECs cells were plated M199 media at a density of 4 x 10^5 cells per well in a collagen coated (1 µg/cm^2) 12-well plate the day prior to the experiment to ensure a confluent monolayer of hCMVECs. On the day of the experiment cells were pre-incubated in carbenoxolone, (100 µM) Peptide5 (5–100 µM) or modified analogues (100 µM) or M199 as a negative control. Cells were washed three times with phosphate buffered saline (PBS) without Ca^2+ or Mg^2+ and incubated in 0.05% Lucifer Yellow (LY) (Sigma), a fluorescent dye that is transferred through coupled gap junction channels (el-Fouly, Trosko, & Chang, 1987), and scrape-wounded with a size 10 carbon steel surgical blade (Swann-Morton, England). Following a 5 minute incubation at 37 °C in 95% O2 and 5% CO2 without light, the 0.05% LY solution was removed. Cells were rinsed four times with HBSS containing Ca^2+ ^+, and then fixed in 4% paraformaldehyde (PFA) in PBS at pH 7.4 for 10 minutes at room temperature. Cells were then washed 3 times in PBS to remove PFA before fluorescent imaging. Fluorescent images were visualized using a Nikon TE2000E inverted fluorescent microscope (10x magnification, 0.3 numerical aperture), and captured using a Digital Sight CCD camera and Eclipse Net software (Nikon). Three images within each well from three independent experiments were taken for analysis, and the total number of cells showing dye uptake from those that had been loaded were counted manually by masked observers. Each peptide was tested in at least an n of 2 separate experiments.

gap junctions = details: ref Kim et al., 2017b; cited from earlier work

T1 sequence (P17302 whole entry): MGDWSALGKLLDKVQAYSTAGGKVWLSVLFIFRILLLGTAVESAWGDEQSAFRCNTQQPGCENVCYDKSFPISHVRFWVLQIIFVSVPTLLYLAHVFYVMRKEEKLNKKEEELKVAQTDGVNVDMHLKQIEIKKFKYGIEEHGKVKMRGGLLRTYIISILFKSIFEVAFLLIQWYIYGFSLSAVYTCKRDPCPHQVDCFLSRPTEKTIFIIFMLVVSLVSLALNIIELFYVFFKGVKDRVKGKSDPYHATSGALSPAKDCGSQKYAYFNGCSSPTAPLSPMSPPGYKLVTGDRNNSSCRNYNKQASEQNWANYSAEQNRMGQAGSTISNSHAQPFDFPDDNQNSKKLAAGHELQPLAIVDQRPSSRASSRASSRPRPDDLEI

For `CC(C)C[C@@H]1NC(=O)[C@H](Cc2ccccc2)NC(=O)[C@H](CS)NC(=O)[C@H](CC(=O)O)NC(=O)[C@H](C(C)C)NC(=O)[C@@H](N)CC=CC[C@@H](C(=O)O)NC(=O)[C@H]([C@@H](C)O)NC(=O)[C@H](CCCCN)NC(=O)[C@H](CCC(=O)O)NC(=O)[C@H]([C@@H](C)O)NC(=O)[C@@H]2CCCN2C(=O)[C@H](CCCNC(=N)N)NC(=O)[C@H](CO)NC1=O` [Peptide 39] (H-[AllylGly]VDCFLSRPTEKT[AllylGly]-OH; staple 1-14), the “stability in human serum (result in words)” value [1] was “good stability over 48 h; also recorded: the most stable in human serum”.
In the case of “CH 3 CH 2 OCO-NH-VDCFLSRPTEKT-CO2H (Ethoxycarbonyl-VDCFLSRPTEKT-OH) [Peptide 2]”, the “ATP release compared to HAIR control (result in words)” value (from here on “ATP release compared to HAIR control”) (Cx43 hemichannel) is reported as “did not reduce ATP release compared to HAIR control” and the “LY dye spread compared to peptide5 (result in words)” value (from here on “LY dye spread compared to peptide5”) [2] is reported as “significantly increased dye spread relative to peptide5 (1)”.
In the case of “H2N-VDCFLSRPTEKT-CH 2 OH (H-VDCFLSRPTEKT-CH2OH) [Peptide 15]”, the “LY dye spread compared to peptide5” value [2] is reported as “significantly increased dye spread relative to peptide5 (1)”.
For `CC1(C)[C@@H](OC(=O)CCC(=O)O)CC[C@]2(C)[C@H]3C(=O)C=C4[C@@H]5C[C@@](C)(C(=O)O)CC[C@]5(C)CC[C@@]4(C)[C@]3(C)CC[C@@H]12` [Cbx, carbenoxolone, reference compound], the “LY dye spread (number of LY-positive cells) as percentage of untreated control” value [2] was 16.2 ± 1.1%.
In the case of “CH 3 CH 2 OCO-NH-VDCFLSRPTEKT-CONH 2 (Ethoxycarbonyl-VDCFLSRPTEKT-NH2) [Peptide 11]”, the “LY dye spread compared to peptide5” value [2] is reported as “significantly increased dye spread relative to peptide5 (1)”.
With “(CH 3 ) 2 CH 2 CH 2 OCO-NH-VDCFLSRPTEKT-CO2H (isopentyloxycarbonyl-VDCFLSRPTEKT-OH) [Peptide 3]” the “ATP release over untreated HAIR controls” value (Cx43 hemichannel) was 52.6 ± 1.3% and the “ATP release compared to peptide5 (result in words)” value (“ATP release compared to peptide5” below) (Cx43 hemichannel) was “equaling the efficacy of peptide5 (1)”.
For “CH 3 CH 2 CH 2 CO-NH-VDCFLSRPTEKT-CO2H (Butyryl-VDCFLSRPTEKT-OH) [Peptide 5]”, the “ATP release over untreated HAIR controls” value (Cx43 hemichannel) was 57.3 ± 12.4% and the “ATP release compared to peptide5” value (Cx43 hemichannel) was “equaling the efficacy of peptide5 (1)”.
With `CC(C)C[C@H](NC(=O)[C@H](Cc1ccccc1)NC(=O)[C@H](CS)NC(=O)[C@H](CC(=O)O)NC(=O)[C@@H](N)C(C)C)C(=O)N[C@@H](CO)C(=O)N[C@@H](CCCNC(=N)N)C(=O)N1CCC[C@H]1C(=O)N[C@H](C(=O)N[C@@H](CCC(=O)O)C(=O)N[C@H](CCCCN)C(=O)N[C@H](C(=O)O)[C@@H](C)O)[C@@H](C)O` [Peptide 9, H2N-VDCFLSRPTEkT-CO2H] (H-VDCFLSRPTE[dK]T-OH) the “LY dye spread compared to peptide5” value [2] was “not statistically different from peptide5” and the “LY dye spread (number of LY-positive cells) as percentage of untreated control” value [2] was 74.7 ± 10.4%.
For `CC(C)C[C@H](NC(=O)[C@H](Cc1ccccc1)NC(=O)[C@H](CS)NC(=O)[C@H](CC(=O)O)NC(=O)[C@@H](N)C(C)C)C(=O)N[C@@H](CO)C(=O)N[C@H](CCCNC(=N)N)C(=O)N1CCC[C@H]1C(=O)N[C@H](C(=O)N[C@@H](CCC(=O)O)C(=O)N[C@@H](CCCCN)C(=O)N[C@H](C(=O)O)[C@@H](C)O)[C@@H](C)O` [Peptide 10, H2N-VDCFLSrPTEKT-CO2H] (H-VDCFLS[dR]PTEKT-OH), the “ATP release compared to HAIR control” value (Cx43 hemichannel) was “complete lack of activity”, the “ATP release compared to peptide5” value (Cx43 hemichannel) was “significantly increased compared to peptide5 (1)” and the “LY dye spread / gap junction inhibition compared to control (result in words)” value [2] was “did not reduce the degree of dye spread compared to control”. The “LY dye spread compared to peptide5” value [2] was “significantly increased compared to peptide5 (1)”.
For `CC(C)C[C@@H]1NC(=O)[C@H](Cc2ccccc2)NC(=O)[C@H](CS)NC(=O)[C@H](CC(=O)O)NC(=O)[C@H](C(C)C)NC(=O)[C@@H](N)CC=CC[C@@H](C(=O)N[C@H](C(=O)O)[C@@H](C)O)NC(=O)[C@H](CCC(=O)O)NC(=O)[C@H]([C@@H](C)O)NC(=O)[C@@H]2CCCN2C(=O)[C@H](CCCNC(=N)N)NC(=O)[C@H](CO)NC1=O` [Peptide 42] (H-[AllylGly]VDCFLSRPTE[AllylGly]T-OH; staple 1-12), the “stability in human serum (result in words)” value [1] was “extremely resistant to enzymatic degradation; also recorded: the most stable in human serum” and the remaining at 48 h, 200 µM ([1]; human, serum) was roughly 90%.
With “CH 3 CH 2 CH 2 CO-NH-VDCFLSRPTEKT-CONH 2 (Butyryl-VDCFLSRPTEKT-NH2) [Peptide 14]” the “LY dye spread compared to peptide5” value [2] was “significantly increased dye spread relative to peptide5 (1)”.
In the case of “PhCO-NH-VDCFLSRPTEKT-CO2H (Bz-VDCFLSRPTEKT-OH) [Peptide 4]”, the “ATP release compared to HAIR control” value (Cx43 hemichannel) is reported as “did not reduce ATP release compared to HAIR control” and the “LY dye spread compared to peptide5” value [2] is reported as “significantly increased dye spread relative to peptide5 (1)”.
In the case of SRPTEKT [a truncated peptide5], the “gap junction inhibition compared with peptide5 (result in words)” value (gap junctions) is given as “equally effective as a gap junction inhibitor”.
With “N 3 -VDCFLSRPTEKT-CO2H (N3-VDCFLSRPTEKT-OH) [Peptide 6]” the “ATP release compared to HAIR control” value (Cx43 hemichannel) was “complete lack of activity; also recorded: did not reduce ATP release compared to HAIR control”, the “ATP release compared to peptide5” value (Cx43 hemichannel) was “significantly increased compared to peptide5 (1)” and the “LY dye spread compared to peptide5” value [2] was “significantly increased dye spread relative to peptide5 (1)”.
